According to article PMC6150240, “Synthesis and 2D-QSAR Study of Active Benzofuran-Based Vasodilators” (Molecules : A Journal of Synthetic Chemistry and Natural …, 2017):
Read-outs that look alike come from different tables or passages of the source.

Assays:
[1] = tested on: isolated thoracic aortic rings of male Wistar rats; test: Vasodilation activity screening: isolated thoracic aortic rings pre-contracted with norepinephrine hydrochloride; settings: Rattus norvegicus
Description: The vasodilation activity screening procedures were carried out according to the standard reported techniques by testing the effects of the synthesized 2-alkoxy-4-aryl-6-(benzofuran-2-yl)-3-pyridinecarbonitriles 4a–x on isolated thoracic aortic rings of male Wistar rats (250–350 g). After light ether anesthesia, the rats were sacrificed by cervical dislocation. The aortae were immediately excised, freed of extraneous tissues and prepared for isometric tension recording. Aorta was cut into (3–5 mm width) rings and each ring was placed in a vertical chamber “10 mL jacketed automatic multi-chamber organ bath system (Model no. ML870B6/C, Panlab, Spain)” filled with Krebs solution composed of (in mM): NaCl, 118.0; KCl, 4.7; NaHCO3, 25.0; CaCl2, 1.8; NaH2PO4, 1.2; MgSO4, 1.2; glucose, 11.0 and oxygenated with carbogen gas (95% O2/5% CO2) at 37 ± 0.5 °C. Each aortic ring was mounted between two stainless steel hooks passed through its lumen. The lower hook was fixed between two plates, while the upper one was attached to a force displacement transducer (Model no. MLT0201, Panlab, Spain) connected to an amplifier (PowerLab, AD Instruments Pty., Ltd. Victoria, Australia), which is connected to a computer. The chart for Windows (v 3.4) software was used to record and elaborate data. Preparations were stabilized under 2 g resting tension during 2 h and then the contracture response to norepinephrine hydrochloride (10^−6 M) was measured before and after exposure to increasing concentrations of the tested synthesized compounds. The tested compounds were dissolved in dimethylsulfoxide (DMSO) as stock solution (10 mL of 0.005 M). […] This experiment was carried out in according to recommendations in the Guide for the Care and Use of Laboratory Animals of the National Institutes of Health (NIH publication No. 85–23, revised 1996) and under regulations of the Animal Care and Use of National Research Centre in Egypt.

[2] = norepinephrine hydrochloride 10^−6 M, three replicates, read-out: Potency (IC50), concentration necessary for 50% reduction of maximal norepinephrine hydrochloride induced contracture
[3] = norepinephrine hydrochloride induced contracture, observed values as used in the QSAR, read-out: Observed IC50

An IC50 [1, 2] of 281 µM and an IC50 [1, 3] of 281 µM were found for `COc1nc(-c2ccccc2)cc(-c2cn(-c3ccccc3)nc2-c2cc3ccccc3o2)c1C#N` [Compound 4a, 4-(3-(Benzofuran-2-yl)-1-phenyl-1H-pyrazol-4-yl)-2-methoxy-6-phenylpyridine-3-carbonitrile] in this work.

A melting point of 186 to 188 °C, an IC50 [1, 2] of 343 µM and an IC50 [1, 3] of 343 µM were found for `CCOc1nc(-c2ccccc2)cc(-c2cn(-c3ccccc3)nc2-c2cc3ccccc3o2)c1C#N` [Compound 4b, 4-(3-(Benzofuran-2-yl)-1-phenyl-1H-pyrazol-4-yl)-2-ethoxy-6-phenylpyridine-3-carbonitrile] in this work.

An IC50 [1, 2] of 295 µM and an IC50 [1, 3] of 295 µM were found for `COc1nc(-c2ccc(Cl)cc2)cc(-c2cn(-c3ccccc3)nc2-c2cc3ccccc3o2)c1C#N` [Compound 4c, 4-(3-(Benzofuran-2-yl)-1-phenyl-1H-pyrazol-4-yl)-6-(4-chlorophenyl)-2-methoxypyridine-3-carbonitrile] in this work.

A melting point of 199 to 201 °C, an IC50 [1, 2] of 397 µM and an IC50 [1, 3] of 397 µM were found for `CCOc1nc(-c2ccc(Cl)cc2)cc(-c2cn(-c3ccccc3)nc2-c2cc3ccccc3o2)c1C#N` [Compound 4d, 4-(3-(Benzofuran-2-yl)-1-phenyl-1H-pyrazol-4-yl)-6-(4-chlorophenyl)-2-ethoxypyridine-3-carbonitrile] in this work.

An IC50 [1, 2] of 253 µM and an IC50 [1, 3] of 253 µM were found for `COc1nc(-c2ccc(Br)cc2)cc(-c2cn(-c3ccccc3)nc2-c2cc3ccccc3o2)c1C#N` [Compound 4e, 4-(3-(Benzofuran-2-yl)-1-phenyl-1H-pyrazol-4-yl)-6-(4-bromophenyl)-2-methoxypyridine-3-carbonitrile] in this work.

An IC50 [1, 2] of 267 µM and an IC50 [1, 3] of 267 µM were found for `CCOc1nc(-c2ccc(Br)cc2)cc(-c2cn(-c3ccccc3)nc2-c2cc3ccccc3o2)c1C#N` [Compound 4f, 4-(3-(Benzofuran-2-yl)-1-phenyl-1H-pyrazol-4-yl)-6-(4-bromophenyl)-2-ethoxypyridine-3-carbonitrile] in this work.

An IC50 [1, 2] of 275 µM and an IC50 [1, 3] of 275 µM were found for `COc1nc(-c2ccc(F)cc2)cc(-c2cn(-c3ccccc3)nc2-c2cc3ccccc3o2)c1C#N` [Compound 4g, 4-(3-(benzofuran-2-yl)-1-phenyl-1H-pyrazol-4-yl)-6-(4-fluorophenyl)-2-methoxypyridine-3-carbonitrile] in this work.

A melting point of 204 to 206 °C, an IC50 [1, 2] of 330 µM and an IC50 [1, 3] of 330 µM were found for `CCOc1nc(-c2ccc(F)cc2)cc(-c2cn(-c3ccccc3)nc2-c2cc3ccccc3o2)c1C#N` [Compound 4h, 4-(3-(Benzofuran-2-yl)-1-phenyl-1H-pyrazol-4-yl)-2-ethoxy-6-(4-fluorophenyl)pyridine-3-carbonitrile] in this work.

A melting point of 258 to 260 °C, an IC50 [1, 2] of 330 µM and an IC50 [1, 3] of 330 µM were found for `COc1nc(-c2ccc(C)cc2)cc(-c2cn(-c3ccccc3)nc2-c2cc3ccccc3o2)c1C#N` [Compound 4i, 4-(3-(Benzofuran-2-yl)-1-phenyl-1H-pyrazol-4-yl)-2-methoxy-6-p-tolylpyridine-3-carbonitrile] in this work.

A melting point of 202 to 204 °C, an IC50 [1, 2] of 452 µM and an IC50 [1, 3] of 452 µM were found for `CCOc1nc(-c2ccc(C)cc2)cc(-c2cn(-c3ccccc3)nc2-c2cc3ccccc3o2)c1C#N` [Compound 4j, 4-(3-(Benzofuran-2-yl)-1-phenyl-1H-pyrazol-4-yl)-2-ethoxy-6-p-tolylpyridine-3-carbonitrile] in this work.

A melting point of 256 to 258 °C, an IC50 [1, 2] of 428 µM and an IC50 [1, 3] of 322 µM were found for `COc1ccc(-c2cc(-c3cn(-c4ccccc4)nc3-c3cc4ccccc4o3)c(C#N)c(OC)n2)cc1` [Compound 4k, 4-(3-(Benzofuran-2-yl)-1-phenyl-1H-pyrazol-4-yl)-2-methoxy-6-(4-methoxyphenyl)pyridine-3-carbonitrile] in this work.

An IC50 [1, 2] of 291 µM and an IC50 [1, 3] of 291 µM were found for `CCOc1nc(-c2ccc(OC)cc2)cc(-c2cn(-c3ccccc3)nc2-c2cc3ccccc3o2)c1C#N` [Compound 4l, 4-(3-(Benzofuran-2-yl)-1-phenyl-1H-pyrazol-4-yl)-2-ethoxy-6-(4-methoxyphenyl)pyridine-3-carbonitrile] in this work.

An IC50 [1, 2] of 286 µM and an IC50 [1, 3] of 286 µM were found for `COc1nc(-c2ccc3c(c2)CCCC3)cc(-c2cn(-c3ccccc3)nc2-c2cc3ccccc3o2)c1C#N` [Compound 4m, 4-(3-(Benzofuran-2-yl)-1-phenyl-1H-pyrazol-4-yl)-6-(1,2,3,4-tetrahydronaphthalen-6-yl)-2-methoxypyridine-3-carbonitrile] in this work.

A melting point of 213 to 215 °C, an IC50 [1, 2] of 337 µM and an IC50 [1, 3] of 337 µM were found for `CCOc1nc(-c2ccc3c(c2)CCCC3)cc(-c2cn(-c3ccccc3)nc2-c2cc3ccccc3o2)c1C#N` [Compound 4n, 4-(3-(Benzofuran-2-yl)-1-phenyl-1H-pyrazol-4-yl)-2-ethoxy-6-(1,2,3,4-tetrahydronaphthalen-6-yl)pyridine-3-carbonitrile] in this work.

A melting point of 187 to 189 °C and an IC50 [1, 2] of 356 µM were found for `COc1nc(-c2ccc[nH]2)cc(-c2cn(-c3ccccc3)nc2-c2cc3ccccc3o2)c1C#N` [Compound 4o, 4-(3-(Benzofuran-2-yl)-1-phenyl-1H-pyrazol-4-yl)-2-methoxy-6-(1H-pyrrol-2-yl)pyridine-3-carbonitrile] in this work.

A melting point of 208 to 210 °C, an IC50 [1, 2] of 400 µM and an IC50 [1, 3] of 298 µM were found for `CCOc1nc(-c2ccc[nH]2)cc(-c2cn(-c3ccccc3)nc2-c2cc3ccccc3o2)c1C#N` [Compound 4p, 4-(3-(Benzofuran-2-yl)-1-phenyl-1H-pyrazol-4-yl)-2-ethoxy-6-(1H-pyrrol-2-yl)pyridine-3-carbonitrile] in this work.

A melting point of 246 to 248 °C, an IC50 [1, 2] of 321 µM and an IC50 [1, 3] of 321 µM were found for `COc1nc(-c2ccco2)cc(-c2cn(-c3ccccc3)nc2-c2cc3ccccc3o2)c1C#N` [Compound 4q, 4-(3-(Benzofuran-2-yl)-1-phenyl-1H-pyrazol-4-yl)-6-(furan-2-yl)-2-methoxypyridine-3-carbonitrile] in this work.

An IC50 [1, 2] of 254 µM and an IC50 [1, 3] of 254 µM were found for `CCOc1nc(-c2ccco2)cc(-c2cn(-c3ccccc3)nc2-c2cc3ccccc3o2)c1C#N` [Compound 4r, 4-(3-(Benzofuran-2-yl)-1-phenyl-1H-pyrazol-4-yl)-2-ethoxy-6-(furan-2-yl)pyridine-3-carbonitrile] in this work.

An IC50 [1, 2] of 268 µM was found for `COc1nc(-c2cccs2)cc(-c2cn(-c3ccccc3)nc2-c2cc3ccccc3o2)c1C#N` [Compound 4s, 4-(3-(Benzofuran-2-yl)-1-phenyl-1H-pyrazol-4-yl)-2-methoxy-6-(thiophen-2-yl)pyridine-3-carbonitrile] in this work.

An IC50 [1, 2] of 298 µM and an IC50 [1, 3] of 400 µM were found for `CCOc1nc(-c2cccs2)cc(-c2cn(-c3ccccc3)nc2-c2cc3ccccc3o2)c1C#N` [Compound 4t, 4-(3-(Benzofuran-2-yl)-1-phenyl-1H-pyrazol-4-yl)-2-ethoxy-6-(thiophen-2-yl)pyridine-3-carbonitrile] in this work.

A melting point of 275 to 277 °C, an IC50 [1, 2] of 333 µM and an IC50 [1, 3] of 333 µM were found for `COc1nc(-c2ccccn2)cc(-c2cn(-c3ccccc3)nc2-c2cc3ccccc3o2)c1C#N` [Compound 4u, 4-(3-(Benzofuran-2-yl)-1-phenyl-1H-pyrazol-4-yl)-2-methoxy-6-(pyridin-2-yl)pyridine-3-carbonitrile] in this work.

A melting point of 204 to 206 °C, an IC50 [1, 2] of 370 µM and an IC50 [1, 3] of 370 µM were found for `CCOc1nc(-c2ccccn2)cc(-c2cn(-c3ccccc3)nc2-c2cc3ccccc3o2)c1C#N` [Compound 4v, 4-(3-(Benzofuran-2-yl)-1-phenyl-1H-pyrazol-4-yl)-2-ethoxy-6-(pyridin-2-yl)pyridine-3-carbonitrile] in this work.

An IC50 [1, 2] of 223 µM and an IC50 [1, 3] of 223 µM were found for `COc1nc(-c2nc3ccccc3n2C)cc(-c2cn(-c3ccccc3)nc2-c2cc3ccccc3o2)c1C#N` [Compound 4w, 4-(3-(Benzofuran-2-yl)-1-phenyl-1H-pyrazol-4-yl)-2-methoxy-6-(1-methyl-1H-benzo[d]imidazole-2-yl)pyridine-3-carbonitrile] in this work.

An IC50 [1, 2] of 299 µM and an IC50 [1, 3] of 299 µM were found for `CCOc1nc(-c2nc3ccccc3n2C)cc(-c2cn(-c3ccccc3)nc2-c2cc3ccccc3o2)c1C#N` [Compound 4x, 4-(3-(Benzofuran-2-yl)-1-phenyl-1H-pyrazol-4-yl)-2-ethoxy-6-(1-methyl-1H-benzo[d]-imidazol-2-yl)pyridine-3-carbonitrile] in this work.
